Melting point data for 30 compounds are collected here from patent US20060223819A1, “Quinoline Derivatives as NK-3 Antagonists” (GlaxoSmithKline S.P.A. & Laboratoire, priority 2000, published 2006).

Each structure is given as a SMILES string. Where a name gives a salt, the structure may show the parent alone.

`C[C@H](NC(=O)c1c(CN2CCN(CCO)C(=O)C2)c(-c2ccccc2)nc2ccccc12)C1CCCCC1` (as salt: hydrochloride) [Example 37, 3-[4-(2-Hydroxyethyl)-3-oxopiperazin-1-ylmethyl]-2-phenylquinoline-4-carboxylic acid ((S)-1-cyclohexyl-ethyl)-amide dihydrochloride] displayed a melting point of 171 to 173 °C.

Consider `C[C@H](NC(=O)c1c(CN2CCN(CCC(=O)O)CC2)c(-c2ccccc2)nc2ccccc12)C1CCCCC1` [Example 18, 3-{4-[4-((S)-1-Cyclohexyl-ethylcarbamoyl)-2-phenyl-quinolin-3-ylmethyl]-piperazin-1-yl}-propionic acid], for which the melting point was 192 to 195 °C.

`CC(C)[C@H](NC(=O)c1c(CN2CCNC(=O)C2)c(-c2ccccc2)nc2ccccc12)c1ccccc1` [Example 42, 3-(3-Oxo-piperazin-1-ylmethyl)-2-phenyl-quinoline-4-carboxylic acid ((S)-2-methyl-1-phenyl-propyl)-amide] returned a melting point of 137 °C.

In turn, `C[C@H](NC(=O)c1c(CN2CCN(CC(Cc3ccccc3)C(=O)O)CC2)c(-c2ccccc2)nc2ccccc12)C1CCCCC1` (mixture of isomers) [Example 17, 2-Benzyl-3-{4-[4-((S)-1-cyclohexyl-ethylcarbamoyl)-2-phenyl-quinolin-3-ylmethyl]-piperazin-1-yl}-propionic acid] gave a melting point of 136 °C.

For the compound `C[C@H](NC(=O)c1c(CN2CCNC(=O)C2)c(-c2ccccc2)nc2ccc(F)cc12)C1CCCCC1` [Example 32, 6-Fluoro-3-(3-oxo-piperazin-1-ylmethyl)-2-phenyl-quinoline-4-carboxylic acid ((S)-1-cyclohexyl-ethyl)-amide], the melting point was 230 °C.

`COc1cccc([C@H](C)NC(=O)c2c(CN3CCNCC3)c(-c3ccccc3)nc3ccccc23)c1` [Example 3, 2-Phenyl-3-piperazin-1-ylmethyl-quinoline-4-carboxylic acid[(S)-1-(3-methoxy-phenyl)-ethyl]-amide] returned a melting point of 147 to 153 °C.

Consider `C[C@H](NC(=O)c1c(CN2CCNC(=O)C2)c(-c2ccccc2)nc2c(F)cccc12)C1CCCCC1` [Example 39, 8-Fluoro-3-(3-oxo-piperazin-1-ylmethyl)-2-phenylquinoline-4-carboxylic acid ((S)-1-cyclohexyl-ethyl)-amide], for which the melting point is 165 °C.

In turn, `C[C@H](NC(=O)c1c(CN2CCN(CC(C(=O)O)c3ccccc3)CC2)c(-c2ccccc2)nc2ccccc12)C1CCCCC1` (stereo partly drawn) [Example 22, 3-{4-[4-((S)-1-Cyclohexyl-ethylcarbamoyl)-2-phenyl-quinolin-3-ylmethyl]-piperazin-1-yl}-2-phenyl-propionic acid] came in with a melting point of 144 to 145 °C.

The compound `C[C@H](NC(=O)c1c(CN2CCN(CCN3CCCCC3)C(=O)C2)c(-c2ccccc2)nc2ccccc12)C1CCCCC1` [Example 43, 3-[3-Oxo-4-(2-piperidin-1-ylethyl)piperazin-1-ylmethyl]-2-phenylquinoline-4-carboxylic acid ((S)-1-cyclohexylethyl)amide] showed a melting point of 160 °C.

As for `C[C@H](NC(=O)c1c(CN2CCN(/C(=C/[N+](=O)[O-])N3CCCC3)CC2)c(-c2ccccc2)nc2ccccc12)c1ccccc1` [Example 12, 3-[4-(2-Nitro-1-pyrrolidin-1-yl-vinyl)-piperazin-1-ylmethyl]-2-phenyl-quinoline-4-carboxylic acid ((S)-1-phenyl-ethyl)-amide], the melting point lay within 164 to 165 °C.

`CC(C)[C@H](NC(=O)c1c(CN2CCN(/C(=C/[N+](=O)[O-])N3CCCC3)CC2)c(-c2ccccc2)nc2ccccc12)c1ccccc1` [Example 13, 3-[4-(2-Nitro-1-pyrrolidin-1-yl-vinyl)-piperazin-1-ylmethyl]-2-phenyl-quinoline-4-carboxylic acid ((S)-2-methyl-1-phenyl-propyl)-amide] registered a melting point of 170 to 175 °C.

`C[C@H](NC(=O)c1c(CN2CCNC(=O)C2)c(-c2cccs2)nc2ccccc12)C1CCCCC1` [Example 41, 3-(3-Oxo-piperazin-1-ylmethyl)-2-thiophen-2-yl-quinoline-4-carboxylic acid ((S)-1-cyclohexylethyl)-amide] yielded a melting point of 225 to 230 °C.

As to `C[C@@H](NC(=O)c1c(CN2CCNCC2)c(-c2ccccc2)nc2ccccc12)C1CCCCC1` [Example 5, 2-Phenyl-3-piperazin-1-ylmethyl-quinoline-4-carboxylic acid((R)-1-cyclohexyl-ethyl)-amide], the melting point is 118 to 120 °C.

Consider `C[C@H](NC(=O)c1c(CN2CCNCC2)c(-c2ccccc2)nc2ccccc12)c1cccc(O)c1` [Example 4, 2-Phenyl-3-piperazin-1-ylmethyl-quinoline-4-carboxylic acid [(S)-1-(3-hydroxy-phenyl)-ethyl]-amide], for which the melting point was in the range of 240 to 244 °C.

`COc1cc2nc(-c3ccccc3)c(CN3CCNCC3)c(C(=O)N[C@@H](C)C3CCCCC3)c2cc1OC` [Example 10, 6,7-Dimethoxy-2-phenyl-3-piperazin-1-ylmethyl-quinoline-4-carboxylic acid ((S)-1-cyclohexyl-ethyl)-amide] yielded a melting point of 130 to 132 °C.

In turn, `C[C@H](NC(=O)c1c(CN2CCN(CC(N)=O)CC2)c(-c2ccccc2)nc2ccccc12)C1CCCCC1` [Example 19, 3-(4-Carbamoylmethyl-piperazin-1-ylmethyl)-2-phenyl-quinoline-4-carboxylic acid ((S)-1-cyclohexyl-ethyl)-amide] displayed a melting point of 125 to 130 °C.

`C[C@H](NC(=O)c1c(CN2CC(=O)NC(=O)C2)c(-c2ccccc2)nc2ccccc12)C1CCCCC1` [Example 29, 3-(3,5-Dioxopiperazin-1-ylmethyl)-2-phenylquinoline-4-carboxylic acid ((S)-1-cyclohexylethyl)-amide] gave a melting point of 124 °C.

`C[C@H](NC(=O)c1c(CN2CCN(Cc3ccccc3)C(=O)C2)c(-c2ccccc2)nc2ccccc12)C1CCCCC1` [Example 33, 3-(4-Benzyl-3-oxopiperazin-1-ylmethyl)-2-phenylquinoline-4-carboxylic acid ((S)-1-cyclohexylethyl)-amide] yielded a melting point of 181 °C.

`C[C@H](NC(=O)c1c(CN2CCNCC2)c(-c2ccccc2)nc2ccc(F)cc12)C1CCCCC1` [Example 24, 6-Fluoro-2-phenyl-3-piperazin-1-ylmethylquinoline-4-carboxylic acid ((S)-1-cyclohexylethyl)-amide] yielded a melting point of 154 to 158 °C.

Take `CC(C)[C@H](NC(=O)c1c(CN2CCN(CC(C(=O)O)c3ccccc3)CC2)c(-c2ccccc2)nc2ccccc12)c1ccccc1` (stereo partly drawn) [Example 16, 3-{4-[4-((S)-2-Methyl-1-phenyl-propylcarbamoyl)-2-phenyl-quinolin-3-ylmethyl]-piperazin-1-yl}-2-phenyl-propionic acid]: the melting point was 156 to 158 °C.

`CCCN1CCN(Cc2c(-c3ccccc3)nc3ccccc3c2C(=O)N[C@@H](C)C2CCCCC2)CC1=O` [Example 36, 3-(3-Oxo-4-propyl-piperazin-1-ylmethyl)-2-phenyl-quinoline-4-carboxylic acid ((S)-1-cyclohexyl-ethyl)-amide] came in with a melting point of 150 °C.

`C[C@H](NC(=O)c1c(CN2CCNCC2)c(-c2ccccc2)nc2cc3c(cc12)OCCO3)C1CCCCC1` [Example 9, 7-Phenyl-8-piperazin-1-ylmethyl-2,3-dihydro-[1,4]dioxino[2,3-g]quinoline-9-carboxylic acid ((S)-1-cyclohexyl-ethyl)-amide]: the melting point lay in the range of 135 to 137 °C.

`COc1ccc([C@H](C)NC(=O)c2c(CN3CCNCC3)c(-c3ccccc3)nc3ccccc23)cc1` [Example 2, 2-Phenyl-3-piperazin-1-ylmethyl-quinoline-4-carboxylic acid[(S)-1-(4-methoxy-phenyl)-ethyl]-amide] returned a melting point of 109 to 111 °C.

The compound `CCOC(=O)C(CN1CCN(Cc2c(-c3ccccc3)nc3ccccc3c2C(=O)N[C@@H](C)C2CCCCC2)CC1)c1ccccc1` (stereo partly drawn) [Example 20, 3-{4-[4-((S)-1-Cyclohexyl-ethylcarbamoyl)-2-phenyl-quinolin-3-ylmethyl]-piperazin-1-yl}-2-phenyl-propionic acid ethyl ester] came in with a melting point of 90 to 91 °C.

`C[C@H](NC(=O)c1c(CN2CCNCC2=O)c(-c2ccccc2)nc2ccccc12)C1CCCCC1` [Example 30, 3-(2-Oxopiperazin-1-ylmethyl)-2-phenylquinoline-4-carboxylic acid ((S)-1-cyclohexylethyl)-amide] had a melting point of 212 °C.

`C[C@H](NC(=O)c1c(CN2CC(=O)NCC2=O)c(-c2ccccc2)nc2ccccc12)C1CCCCC1` [Example 31, 3-(2,5-Dioxo-piperazin-1-ylmethyl)-2-phenyl-quinoline-4-carboxylic acid ((S)1-cyclohexylethyl)-amide] gave a melting point of 251 °C.

For the compound `C[C@H](NC(=O)c1c(CN2CCN(CCS(C)(=O)=O)CC2)c(-c2ccccc2)nc2ccccc12)C1CCCCC1` [Example 21, 3-[4-(2-Methanesulfonyl-ethyl)-piperazin-1-ylmethyl]-2-phenyl-quinoline-4-carboxylic acid ((S)-1-cyclohexyl-ethyl)-amide], the melting point was in the range of 120 to 121 °C.

Turning to `C[C@H](NC(=O)c1c(CN2CCNCC2)c(-c2ccccc2)nc2ccccc12)c1ccc(O)cc1` [Example 6, 2-Phenyl-3-piperazin-1-ylmethyl-quinoline-4-carboxylic acid [(S)-1-(4-hydroxy-phenyl)-ethyl]-amide], the melting point was found to be 163 °C.

For `CC(CN1CCN(Cc2c(-c3ccccc3)nc3ccccc3c2C(=O)N[C@@H](C)c2ccccc2)CC1)C(=O)O` (stereo partly drawn) [Example 14, 2-Methyl-3-{4-[2-phenyl-4-((S)-1-phenyl-ethylcarbamoyl)-quinolin-3-ylmethyl]-piperazin-1-yl}-propionic acid], the melting point fell in the range of 137 to 138 °C.

The compound `C[C@H](NC(=O)c1c(CN2CCNC(=O)C2)c(-c2ccccc2)nc2cc3c(cc12)OCCO3)C1CCCCC1` [Example 38, 8-(3-Oxo-piperazin-1-ylmethyl)-7-phenyl-2,3-dihydro-[1,4]dioxino[2,3-g]quinoline-9-carboxylic acid ((S)-1-cyclohexyl-ethyl)-amide] returned a melting point of 144 to 145 °C.
